For one assay, the system named is human Pan T cells. In words: Human Pan T cell IL-2 ELISA. The format is cell-based. To be noted: Anti-CD3 and Anti-CD28, 48 hours, supernatant IL-2 ELISA, read-out: IL-2 release, EC50. On the procedure: A compound was dissolved in DMSO to 10 mM, and then diluted three-fold with DMSO to 9 dosages in a 96-well plate. Then, 10 µL of the diluted compound sample was transferred to a 96-well plate with 90 µL of cell culture medium, and the plate was shaken for 5 minutes. Then, 5 µL of the diluted compound sample was transferred to a 96-well plate with 120 µL of cell culture medium, and the plate was shaken for 5 minutes. According to the experimental design diagram, 50 µL of the diluted compound sample was transferred to a cell plate. Final concentrations of the compound in this assay were 10000.00, 5000, 2500, 1250, 625, 312.5, 156.25, 78.125 and 39.063 nM.
The assay was conducted in a 96-well plate. On the first day of the assay, Anti-CD3 was added to the 96-well plate and incubated in a 4 °C refrigerator overnight. On the second day of the assay, human Pan T cells were recovered, centrifuged and counted. The cell density was adjusted to 1*10^6 cells/ml. Then, 100 µL of cells were added to the 96-well plate washed with PBS and added with Anti-CD3; according to the experimental design diagram, 50 µL of diluted Anti-CD28 and 50 µL of the diluted compound were added to each well, centrifuged, and the cell plate was placed and incubated in an incubator for 48 hours; after 48 hours, the plate was centrifuged and the supernatant was collected for IL-2 ELISA.
The signal value of light absorption was converted into a multiple. Multiple = sample value/the average value of control wells. The average value of control wells refers to the value measured in wells with DMSO added. EC50 values were calculated by XLFit (version 5.3.1.3) in Excel. Equation: Y=Bottom + (Top-Bottom) / (1 + (EC50/X) ^ HillSlope). Table 6. Results of cellular activity of the compounds
In general terms: In an ELISA, binding on a coated surface is turned into a signal by an enzyme label.
As a reminder, the EC50 is the concentration that produces a half-maximal response. Consider `CC1(C)c2cc(N3CCOCC3)ccc2Nc2c1cc(-c1cnc3n1CCC(C(F)F)C3)c1c2C(=O)NC1` (single isomer, unassigned) [Example 240], for which the EC50 was found to be 0.026 µM.

Turning to `CO[C@H]1CCCn2c(-c3cc4c(c5c3CNC5=O)Nc3ccc(N5CC6CCC(C5)O6)cc3C4(C)C)cnc21` [Example 196], the EC50 turned out to be 0.027 µM.

For `Cn1c(-c2cc3c(c4c2CNC4=O)Nc2ccc(N4CCOCC4)cc2C3(C)C)cnc1C1CCCO1` (single isomer, unassigned) [Example 191], the EC50 came out at 0.028 µM.

Staying with this assay, now noted: Homo sapiens, T-cell, 48 h, Anti-CD3 and Anti-CD28, supernatant IL-2 ELISA, read-out: IL-2 release, EC50.
In the case of `CC1(C)c2cc(N3CCOCC3)ccc2Nc2c1cc(-c1cnc3nc(N4CC(F)C4)ccn13)c1c2C(=O)NC1` [Example 247], the EC50 was determined as 0.0092 µM.

`CC1(C)c2cc(N3CCOCC3)ccc2Nc2c1cc(-c1cnc3n1CCCC3)c1c2C(=O)NC1` [Example 48]: the EC50 is 0.0135 µM.

On to `CC1(C)c2cc(N3CCOC(C(C)(C)O)C3)ccc2Nc2c1cc(-c1cnn3cc(F)ccc13)c1c2C(=O)NC1` (stereo not drawn) [Example 109], for which the EC50 was 0.00918 µM.

For the compound `CC1(C)c2cc(N3CCOCC3)ccc2Nc2c1cc(-c1cnc3nc(N4CC(O)C4)ccn13)c1c2C(=O)NC1` [Example 253], the EC50 was 0.054 µM.

`COc1nccn2c(-c3cc4c(c5c3CNC5=O)Nc3ccc(N5C6CCC5COC6)cc3C4(C)C)cnc12` [Example 232]: the concentration for a half-maximal effect (EC50) turned out to be 0.011 µM.

For `CC1(C)c2cc(N3CCOC(C(C)(C)O)C3)ccc2Nc2c1cc(-c1cnc3cc(C#N)ccn13)c1c2C(=O)NC1` (single isomer, unassigned) [Example 133], the EC50 came out at 0.0221 µM.

For the compound `CC1(C)c2cc(N3CCOC(C(C)(C)O)C3)ccc2Nc2c1cc(-c1cnc3cc(F)ccn13)c1c2C(=O)NC1` (single isomer, unassigned) [Example 93], the 50% effective concentration (EC50) is 0.00633 µM.

For `CC1(C)c2cc(N3CCOCC3)ccc2Nc2c1cc(-c1cnc3nc(C4CC4)ccn13)c1c2C(=O)NC1` [Example 254], the EC50 was determined as 0.028 µM.

Consider `Cn1c(-c2cc3c(c4c2CNC4=O)Nc2ccc(N4CCOC(C(C)(C)O)C4)cc2C3(C)C)cnc1C1CCNC1` (single isomer, unassigned) [Example 143], for which the EC50 is 0.592 µM.

In the case of `COC1CCCn2c(-c3nc4c(c5c3CNC5=O)Nc3ccc(N5CCOCC5)cc3C4(C)C)cnc21` (single isomer, unassigned) [Example 279], the EC50 was determined as 0.17 µM.

`CC1(C)c2cc(N3CCOC(C4(O)CC4)C3)ccc2Nc2c1cc(-c1cnc3cc(C(F)F)ccn13)c1c2C(=O)NC1` (stereo not drawn) [Example 205]: the EC50 was 0.0066 µM.

In the case of `Cn1cnc2c(-c3cc4c(c5c3CNC5=O)Nc3ccc(N5CCOC(C(C)(C)O)C5)cc3C4(C)C)cncc21` (stereo not drawn) [Example 119], the EC50 stood at 0.00852 µM.

On to `COc1ccn2c(-c3cc4c(c5c3CNC5=O)Nc3ccc(N5CCOC(C(C)(C)O)C5)cc3C4(C)C)cnc2c1` (stereo not drawn) [Example 110], for which the EC50 was 0.0159 µM.

Take `COC1CCn2c(-c3cc4c(c5c3CNC5=O)Nc3ccc(N5CCOCC5)cc3C4(C)C)cnc21` (single isomer, unassigned) [Example 229]: the EC50 amounted to 0.014 µM.

`CC1(C)c2cc(N3CCO[C@@H](C(C)(C)O)C3)ccc2Nc2c1cc(-c1cnc3c(F)c(C#N)ccn13)c1c2C(=O)NC1` [Example 179]: the EC50 turned out to be 0.0069 µM.

For the compound `COc1nccn2c(-c3cc4c(c5c3CNC5=O)Nc3ccc(N5CCOC6(CC6)C5)cc3C4(C)C)cnc12` [Example 201], the EC50 was 0.0027 µM.

Consider `COC1CCCn2c(-c3cc4c(c5c3CNC5=O)Nc3cc(C#N)c(N5CCOCC5)cc3C4(C)C)cnc21` (single isomer, unassigned) [Example 175], for which the EC50 worked out at 0.014 µM.

As for `CC1(C)c2cc(N3CCOCC3)ccc2Nc2c1cc(-c1cnc3c(=O)n(C(F)F)ccn13)c1c2C(=O)NC1` [Example 258], the EC50 was 0.0061 µM.

As for `CC1(C)c2cc(N3CCOC(C(C)(C)O)C3)ccc2Nc2c1cc(-c1cnn3cc(C#N)ccc13)c1c2C(=O)NC1` (single isomer, unassigned) [Example 145], the 50% effective concentration (EC50) stood at 0.0065 µM.

On to `Cn1c(-c2cc3c(c4c2CNC4=O)Nc2ccc(N4CCOCC4)cc2C3(C)C)cnc1C1CCCO1` (single isomer, unassigned) [Example 190], for which the concentration giving a half-maximal response (EC50) came out at 0.053 µM.

In the case of `CN1CCN(c2ccc3c(c2)C(C)(C)c2cc(-c4cnn5cccnc45)c4c(c2N3)C(=O)NC4)CC1` [Example 44], the EC50 came out at 0.00247 µM.

As to `CC1(C)c2cc(N3CCOCC3)ccc2Nc2c1cc(-c1cnc3ncccn13)c1c2C(=O)NC1` [Example 250], the concentration for a half-maximal effect (EC50) amounted to 0.0031 µM.

On to `COCC1(O)CCN(c2ccc3c(c2)C(C)(C)c2cc(-c4cnn5cccnc45)c4c(c2N3)C(=O)NC4)CC1` [Example 49], for which the EC50 worked out at 0.0127 µM.

In the case of `CC1(C)c2cc(N3CCOC(C(C)(C)O)C3)ccc2Nc2c1cc(-c1cnn3ccccc13)c1c2C(=O)NC1` (stereo not drawn) [Example 122], the EC50 turned out to be 0.0043 µM.

Turning to `CC(C)(O)c1ccn2c(-c3cc4c(c5c3CNC5=O)Nc3ccc(N5CCOCC5)cc3C4(C)C)cnc2c1` [Example 208], the EC50 was 0.016 µM.

`CC1(C)c2cc(N3CCOCC3)ccc2Nc2c1cc(-c1cnc3cc(N4CC(F)C4)ccn13)c1c2C(=O)NC1` [Example 207]: the EC50 worked out at 0.023 µM.

Consider `CC1(C)c2cc(N3CCOC(C(C)(C)O)C3)ccc2Nc2c1cc(-c1cnc3cc(C(F)F)ccn13)c1c2C(=O)NC1` (stereo not drawn) [Example 113], for which the EC50 came to 0.014 µM.

With `COc1cc2c(cc1N1CCOCC1)C(C)(C)c1cc(-c3cnc4n3CCCC4OC)c3c(c1N2)C(=O)NC3` (single isomer, unassigned) [Example 182], the EC50 worked out at 0.02 µM.

`CC1(C)c2cc(N3CCOCC3)ccc2Nc2c1cc(-c1cnc3nc(C(F)F)ccn13)c1c2C(=O)NC1` [Example 197]: the EC50 was determined as 0.011 µM.

Take `Cn1c(-c2cc3c(c4c2CNC4=O)Nc2ccc(N4CCOC(C(C)(C)O)C4)cc2C3(C)C)cnc1C1CC1` (stereo not drawn) [Example 105]: the EC50 is 0.0116 µM.

Take `COc1ccnc2c(-c3cc4c(c5c3CNC5=O)Nc3ccc(N5CCO[C@@H](C(C)(C)O)C5)cc3C4(C)C)cnn12` [Example 171]: the EC50 is 0.0063 µM.

Take `CC1(C)c2cc(N3CCOC(C(C)(C)O)C3)ccc2Nc2c1cc(-c1cnn3cc(Cl)ccc13)c1c2C(=O)NC1` (single isomer, unassigned) [Example 154]: the EC50 stood at 0.00735 µM.

For `Cc1nccn2c(-c3cc4c(c5c3CNC5=O)Nc3ccc(N5CCOCC5)cc3C4(C)C)cnc12` [Example 173], the EC50 was found to be 0.0038 µM.

Regarding `COC1CCCn2c(-c3cc4c(c5c3CNC5=O)Nc3c(F)cc(N5CCOCC5)cc3C4(C)C)cnc21` (single isomer, unassigned) [Example 178], the EC50 was 0.019 µM.

For `CCOc1nccn2c(-c3cc4c(c5c3CNC5=O)Nc3ccc(N5CCOCC5)cc3C4(C)C)cnc12` [Example 160], the EC50 amounted to 0.0126 µM.

Turning to `Cn1c(-c2cc3c(c4c2CNC4=O)Nc2ccc(N4CCO[C@@H](C(C)(C)O)C4)cc2C3(C)C)cnc1N1CCOCC1` [Example 174], the EC50 came to 0.039 µM.

`COc1c(F)ccn2c(-c3cc4c(c5c3CNC5=O)Nc3ccc(N5CCOCC5)cc3C4(C)C)cnc12` [Example 209]: the EC50 turned out to be 0.0033 µM.

As to `CC1(C)c2cc(N3CCOC(C(C)(C)O)C3)ccc2Nc2c1cc(-c1cnc3cnccn13)c1c2C(=O)NC1` (stereo not drawn) [Example 112], the EC50 was 0.00467 µM.

On to `CC1(C)c2cc(N3CCOC(C(C)(C)O)C3)ccc2Nc2c1cc(-c1ccncc1)c1c2C(=O)NC1` (stereo not drawn) [Example 43], for which the EC50 was determined as 0.0223 µM.

Take `COC1CCCn2c(-c3cc4c(c5c3CNC5=O)Nc3ccc(N5CCOC(C(C)(C)O)C5)cc3C4(C)C)cnc21` (single isomer, unassigned) [Example 132]: the concentration giving a half-maximal response (EC50) amounted to 0.0101 µM.

Turning to `CC1CCCn2c(-c3cc4c(c5c3CNC5=O)Nc3ccc(N5CCOC(C(C)(C)O)C5)cc3C4(C)C)cnc21` (stereo not drawn) [Example 103], the EC50 amounted to 0.0104 µM.

Turning to `COC1CCCn2c(-c3cc4c(c5c3CNC5=O)Nc3ccc(N5CCCOCC5)cc3C4(C)C)cnc21` (single isomer, unassigned) [Example 158], the EC50 was 0.0376 µM.

For the compound `COc1nccn2c(-c3cc4c(c5c3CNC5=O)Nc3ccc(N5CCOCC5=O)cc3C4(C)C)cnc12` [Example 238], the EC50 turned out to be 0.058 µM.

On to `COC1CCCn2c(-c3cc4c(c5c3CNC5=O)Nc3cc(C5CCOCC5)ccc3C4(C)C)cnc21` (single isomer, unassigned) [Example 144], for which the half-maximal effective concentration (EC50) worked out at 0.134 µM.

Take `CC1(C)c2cc(N3CCC(O)CC3)ccc2Nc2c1cc(-c1cnn3cccnc13)c1c2C(=O)NC1` [Example 47]: the EC50 was found to be 0.00462 µM.

As to `Cn1ncc2c(-c3cc4c(c5c3CNC5=O)Nc3ccc(N5CCOC(C(C)(C)O)C5)cc3C4(C)C)cncc21` (single isomer, unassigned) [Example 146], the EC50 turned out to be 0.0057 µM.

`CCC1(C)c2cc(N3CCOCC3)ccc2Nc2c1cc(-c1cnc3n1CCCC3OC)c1c2C(=O)NC1` (single isomer, unassigned) [Example 159]: the EC50 amounted to 0.0236 µM.

On to `CC1(C)c2cc(N3CCOC(C(C)(C)O)C3)ccc2Nc2c1cc(-c1cnc3cc(C#N)ccn13)c1c2C(=O)NC1` (stereo not drawn) [Example 101], for which the EC50 is 0.00558 µM.
